Blank lines part the entries; values can stand above or below the compound they belong to. The source made the active and inactive calls. The calls are words filed in the database; no cut-off is given here.
Legend:
HepG2 = experiment: Cytotoxicity against human HepG2 cells incubated for 24 to 48 hrs by MTT assay; assay type: functional, cell-based
[1] = Inhibition of TrxR (unknown origin) incubated for 2 hrs in presence of NADPH by DTNB assay; design: species or system Homo sapiens
A549 [2] = experiment: Cytotoxicity against human A549 cells incubated for 24 to 48 hrs by MTT assay; assay type: functional, cell-based
HeLa [3] = experiment: Cytotoxicity against human HeLa cells incubated for 24 to 48 hrs by MTT assay; assay type: functional, cell-based
[4] = Half life in Sprague-Dawley rat at 10 mg/kg, po measured up to 24 hrs by LC-MS/MS analysis; assay type: ADME, organism-based; conditions: in vivo
[5] = Tmax in Sprague-Dawley rat at 10 mg/kg, po measured up to 24 hrs by LC-MS/MS analysis; assay type: ADME, organism-based; conditions: in vivo
A549 [6] = experiment: Induction of apoptosis in human A549 cells assessed as increase in Bax protein expression at 2 to 5 uM incubated for 24 hrs by Western blot analysis; assay type: functional, cell-based; conditions: dose 2-5 µM
[7] = Toxicity in male BALB/c nude mouse xenografted with human A549 cells assessed as effect on spleen at 3 to 6 mg/kg, ip administered for 21 days; assay type: organism-based; conditions: in vivo, 504 h, dose 3-6 mg/kg, time 21 day
A549 [8] = experiment: Antitumor activity against ip dosed human A549 cells xenografted in male BALB/c nude mouse assessed as tumor size administered and measured every 3 days for 21 days; assay type: functional, organism-based; conditions: dose 3-6 mg/kg, time 21.0 day
A549 [9] = experiment: Inhibition of TrxR in human A549 cells assessed as decrease in green fluorescence intensity incubated for 24 hrs by TRFS-green staining based fluorescent microscopic analysis; assay type: cell-based; conditions: dose 1-5 µM
A549 [10] = experiment: Induction of oxidative stress in human A549 cells assessed as decrease in GSH/GSSG ratio at 1 to 5 uM incubated for 24 hrs by microplate reader analysis; assay type: functional, cell-based; conditions: dose 1-5 µM
[11] = GSH reactivity in TE buffer assessed as remaining concentration of compound incubated 1 to 4 hrs at 37 degreeC by HPLC analysis; assay type: physicochemical; conditions: TE buffer with GSH, time 1-4 hrs, read-out: Stability
A549 [12] = experiment: Induction of apoptosis in human A549 cells assessed as apoptotic cell count incubated for 6 hrs by annexin V-FITC and PI staining based flow cytometric analysis; assay type: functional; conditions: dose 1-5 µM
A549 [13] = experiment: Cytotoxicity against human A549 cells assessed as cell viability at 1 to 20 uM cotreated with BSO incubated for 24 hrs by MTT assay; assay type: functional, cell-based; conditions: dose 1-20 µM
A549 [14] = experiment: Induction of ROS accumulation in human A549 cells assessed as increase in fluorescence intensity incubated for 6 hrs by DCFH-DA/DHE staining based analysis; assay type: functional, cell-based; conditions: dose 1-5 µM
A549 [15] = experiment: Antitumor activity against ip dosed human A549 cells xenografted in male BALB/c nude mouse assessed as tumor weight administered and measured every 3 days for 21 days; assay type: functional, organism-based; conditions: dose 3-6 mg/kg, time 21.0 day
HeLa [16] = experiment: Cytotoxicity against human HeLa cells harboring shTrxR1 assessed as cell viability at 1 to 5 uM incubated for 48 hrs by MTT assay; assay type: functional, cell-based; conditions: dose 1-5 µM
HeLa [17] = experiment: Cytotoxicity against human HeLa cells harboring shNT-negative control assessed as cell viability at 1 to 5 uM incubated for 48 hrs by MTT assay; assay type: functional, cell-based; conditions: dose 1-5 µM
A549 [18] = experiment: Induction of apoptosis in human A549 cells assessed as increase in caspase 3 activation incubated for 24 hrs by colorimetric assay; assay type: functional, cell-based; conditions: dose 1-5 µM
[19] = Cytotoxicity against human LO2 cells assessed as cell viability at 1 to 20 uM incubated for 24 hrs by MTT assay; assay type: toxicity, cell-based, L02
A549 [20] = experiment: Induction of oxidative stress in human A549 cells assessed as increase in GSSG levels at 1 to 5 uM incubated for 24 hrs by microplate reader analysis; assay type: functional, cell-based; conditions: dose 1-5 µM
A549 [21] = experiment: Induction of apoptosis in human A549 cells assessed as conversion of caspase 3 to cleaved caspase 3 at 2 to 5 uM incubated for 24 hrs by Western blot analysis; assay type: functional, cell-based; conditions: dose 2-5 µM
[22] = Toxicity in male BALB/c nude mouse xenografted with human A549 cells assessed as effect on heart at 3 to 6 mg/kg, ip administered for 21 days; assay type: organism-based; conditions: in vivo, 504 h, dose 3-6 mg/kg, time 21 day
A549 [23] = experiment: Induction of apoptosis in human A549 cells assessed as small and condensed nuclei at 1 to 5 uM incubated for 24 hrs by Hoechst 33342 staining based fluorescence microscopic analysis; assay type: functional, cell-based; conditions: dose 1-5 µM
A549 [24] = experiment: Antitumor activity against human A549 cells xenografted in male BALB/c nude mouse assessed as tumor growth inhibition at 3 to 6 mg/kg, ip administrated for every 3 days and measured after 21 days relative to control; assay type: functional; conditions: dose 3-6 mg/kg, time 21 day
A549 [25] = experiment: Cytotoxicity against human A549 cells assessed as cell viability at 1 to 20 uM cotreated with NAC incubated for 24 hrs by MTT assay; assay type: functional, cell-based; conditions: dose 1-20 µM
A549 [26] = experiment: Induction of apoptosis in human A549 cells assessed as decrease in Bcl-2 protein expression at 2 to 5 uM incubated for 24 hrs by Western blot analysis; assay type: functional, cell-based; conditions: dose 2-5 µM
[27] = Toxicity in male BALB/c nude mouse xenografted with human A549 cells assessed as effect on body weight 3 to 6 mg/kg, ip administered and measured every 3 days for 21 days; assay type: organism-based; conditions: in vivo, 504 h, dose 3-6 mg/kg, time 21 day
[28] = Toxicity in male BALB/c nude mouse xenografted with human A549 cells assessed as effect on liver at 3 to 6 mg/kg, ip administered for 21 days; assay type: organism-based; conditions: in vivo, 504 h, dose 3-6 mg/kg, time 21 day
A549 [29] = experiment: Induction of oxidative stress in human A549 cells assessed as decrease in intracellular total thiol levels at 5 uM incubated for 24 hrs by DTNB titration based microplate reader analysis relative to control; assay type: functional; design: scale not given: the % may be the effect or the level left
A549 [30] = experiment: Induction of oxidative stress in human A549 cells assessed as activation of ERK pathway by measuring change in protein level incubated for 24 hrs; assay type: functional, cell-based
[31] = Toxicity in male BALB/c nude mouse xenografted with human A549 cells assessed as effect on lung at 3 to 6 mg/kg, ip administered for 21 days; assay type: organism-based; conditions: in vivo, 504 h, dose 3-6 mg/kg, time 21 day
Homo sapiens [32] = organism: Homo sapiens; experiment: Inhibition of TrxR U498C mutant (unknown origin) incubated for 2 hrs in presence of NADPH by DTNB assay
[33] = Inhibition of TrxR in human A549 cells incubated for 24 hrs by endpoint insulin reduction assay; assay type: cell-based
[34] = Cys reactivity in TE buffer assessed as remaining concentration of compound incubated 1 to 4 hrs at 37 degreeC by HPLC analysis; assay type: physicochemical; conditions: TE buffer with cysteine, time 1-4 hrs, read-out: Activity
[35] = AUC (0 to 24 hrs) in Sprague-Dawley rat at 10 mg/kg, po measured up to 24 hrs by LC-MS/MS analysis; assay type: ADME, organism-based; conditions: in vivo
A549 [36] = experiment: Induction of apoptosis in human A549 cells assessed as increase in blue fluorescence at 1 to 5 uM incubated for 24 hrs by Hoechst 33342 staining based fluorescence microscopic analysis; assay type: functional, cell-based; conditions: dose 1-5 µM
A549 [37] = experiment: Inhibition of colony formation in human A549 cells assessed as decrease in number of colonies incubated for 1 day in 5% CO2 at 37 degC followed by replacement with fresh culture medium for every 2 days and measured after 10 days by crystal violet staining based analysis; assay type: functional, cell-based; conditions: dose 0.25-0.5 µM
[38] = Toxicity in male BALB/c nude mouse xenografted with human A549 cells assessed as effect on kidney at 3 to 6 mg/kg, ip administered for 21 days; assay type: organism-based; conditions: in vivo, 504 h, dose 3-6 mg/kg, time 21 day
Homo sapiens [39] = organism: Homo sapiens; experiment: Inhibition of TrxR (unknown origin) assessed as remaining activity at 50 uM incubated for 2 hrs in presence of NADPH by DTNB assay relative to control

SMILES: C[n+]1cc2c3c(ccc2c2ccc4cc5c(cc4c21)OCO5)OCO3 [SANGUINARIUM CHLORIDE]
IC50 (HepG2): 2.6 µM
IC50 [1]: 23 µM
IC50 (A549 [2]): 6.9 µM
IC50 (HeLa [3]): 2.4 µM

SMILES: COc1cc(OC)c2c3ccccc3c[n+](C)c2c1.[I-]
half-life [4]: 2.58 h
Tmax [5]: 2 h
Activity (A549 [6]): Dose-dependent-effect
Activity [7]: Non-toxic
Activity (A549 [8]): Dose-dependent-effect
inhibition (A549 [9]): Dose-dependent-effect
Activity (A549 [10]): inactive
remaining at 50 µM [11]: 94%
Activity (A549 [12]): Dose-dependent-effect
Activity (A549 [13]): Active
Activity (A549 [14]): Dose-dependent-effect
Activity (A549 [15]): Dose-dependent-effect
Activity (HeLa [16]): Active; Compound Exhibited Increased Sensitivity Compared To Hela-Shnt Cells (Negative Control)
Activity (HeLa [17]): Active
Activity (A549 [18]): Dose-dependent-effect
IC50 at 24 h [19]: > 20 µM
Activity (A549 [20]): Active
Activity (A549 [21]): Dose-dependent-effect
Activity [22]: Non-toxic
Activity (A549 [23]): Active
TGI (A549 [24]): 65.49%
Activity (A549 [25]): inactive
IC50 (HepG2): 5 µM
Activity (A549 [26]): Dose-dependent-effect
Activity [27]: Non-toxic
Activity [28]: Non-toxic
Activity (A549 [29]): ~50%
IC50 [1]: 10.2 µM
Activity (A549 [30]): Active
Activity [31]: Non-toxic
inhibition (Homo sapiens [32]): Active; Minimal Inhibition Was Observed
IC50 (A549 [2]): 2.1 µM
IC50 (HeLa [3]): 3.4 µM
IC50 [33]: 3.94 µM
remaining at 50 µM [34]: 102%
AUC [35]: 1060 ng·h/mL
Activity (A549 [36]): Active
inhibition (A549 [37]): Dose-dependent-effect
Activity [38]: Non-toxic

SMILES: C[n+]1cc2ccccc2c2ccc3ccccc3c21
IC50 (HepG2): 5.4 µM
Activity (Homo sapiens [39]): 64%
IC50 (A549 [2]): 7.3 µM
IC50 (HeLa [3]): 5.2 µM

SMILES: C[n+]1cc2ccccc2c2ccccc21
IC50 (HepG2): 32.3 µM
IC50 [1]: > 50 µM
IC50 (A549 [2]): 35.8 µM
IC50 (HeLa [3]): 28 µM

Second part, led by results:

IC50 [1]: > 50 µM
SMILES: Fc1ccc2ncc3ccccc3c2c1
IC50 (HepG2): > 50 µM
IC50 (A549 [2]): > 50 µM
IC50 (HeLa [3]): > 50 µM

IC50 [1]: > 50 µM
SMILES: c1ccc2c(c1)cnc1ccccc12 [PHENANTHRIDINE]
IC50 (HepG2): > 50 µM
IC50 (A549 [2]): > 50 µM
IC50 (HeLa [3]): > 50 µM

IC50 [1]: > 50 µM
SMILES: COc1ccc2ncc3ccccc3c2c1
IC50 (HepG2): > 50 µM
IC50 (A549 [2]): > 50 µM
IC50 (HeLa [3]): > 50 µM

IC50 [1]: > 50 µM
SMILES: Cc1ccc2c(c1)c1ccccc1c[n+]2C
IC50 (HepG2): 15 µM
IC50 (A549 [2]): 18.5 µM
IC50 (HeLa [3]): 12.3 µM

IC50 [1]: > 50 µM
SMILES: C[n+]1cc2ccccc2c2cc(F)ccc21
IC50 (HepG2): 34.7 µM
IC50 (A549 [2]): > 50 µM
IC50 (HeLa [3]): 31.4 µM

— ChEMBL document CHEMBL6182868, “Structural simplification of quaternary benzophenanthridine alkaloids generating a candidate for the treatment of non-small cell lung cancer” (Eur J Med Chem, 2025)
